Patent publication US4954514A, “(Di-tert-butylhydroxyphenyl)thio derivatives and antiarterioschlerosis compositions thereof” (Shionogi & Co, Ltd, priority 1989, dated 1990)

Experiments:
[1] = test system: peroxidized lipid in a homogenate of rat brain; experiment: Suppression on production of peroxidized lipid in a homogenate of rat brain (thiobarbituric acid (TBA) method); type: biochemical, SD strain rats; conditions: final concentration 0.01 mM, 37° C., 30 minutes, % of vehicle control
Description: Suppression on production of peroxidized lipid in a homogenate of rat brain:
SD strain rats (body weight, about 200 g) were sacrificed by cutting down their heads, and the brains were taken out. The brains were homogenated with a 4-fold amount of 0.05M phosphate-sodium chloride buffer (pH 7.4) and centrifuged at 1000×g for 10 minutes. The supernatant was kept at -80° C. for storage.
The supernatant was diluted with a 2-fold amount of the same phosphate - sodium chloride buffer as above, and 0.48 ml of the dilution was combined with 30 μl of ethanol per se (vehicle) or ethanol solution containing a test compound (final concentration: 0.01 mM), followed by incubation at 37° C. for 30 minutes. The reaction was terminated by addition of 0.01% butylhydroxytoluene (BHT) in ethanol (20 μl) and 25% metaphosphoric acid (125 μl) and subjected to elimination of proteins. The peroxidized lipid in the supernatant was measured by the thiobarbituric acid (TBA) method according to the description in Ohkawa et al.: Anal. Biochem., vol. 95, page 351 (1979). The amount of peroxidized lipid produced was compared with that in the vehicle applied group and expressed in % control.

[2] = test system: hydrochloric acid ethanol-induced gastric ulcer; experiment: Effect against hydrochloric acid ethanol-induced gastric ulcer; type: in vivo, male JCD-SD rats; conditions: rat, oral, 30 minutes before hydrochloric acid-ethanol; from lesion index; dose not given
Description: Effect against hydrochloric acid ethanol-induced gastric ulcer.
To male JCD-SD rats (weight: 220-275 g) which have been fasted for 24 hours was administered orally 1 ml of 150 mM hydrochloric acid - 60% ethanol. After an hour, the stomachs were excised. The ulcer size as determined by measuring the length of each lesion under stereoscopic microscope and the sum of individual lesion length is expressed as lesion index. The vehicle (1% to 10% ethanol) and the test compounds were administered orally 30 minutes before the hydrochloric acid -ethanol administration. The percent suppression was calculated from the lesion indexes of treated versus untreated animals.

| SMILES | Peroxidized Lipid Produced (Expressed in % to Control) [1] [%] | Inhibitory Rate (Expressed in % to Control) [2] [%] |
| --- | --- | --- |
| CC(C)(C)c1cc(SCCCC#N)cc(C(C)(C)C)c1O [Ia, 4-(3,5-Di-tert-butyl-4-hydroxy)phenylthiobutylonitrile] | 4.5 | 94.3 ± 14.8 |
| CC(C)(C)c1cc(SCCCCC#N)cc(C(C)(C)C)c1O [Ib, 5-(3,5-Di-tert-butyl-4-hydroxy)phenylthiopentanonitrile] | 3.6 | 61.2 ± 18.4 |
| CC(C)(C)c1cc(SCCCCCC#N)cc(C(C)(C)C)c1O [Ic, 6-(3,5-Di-tert-butyl-4-hydroxy)phenylthiohexanonitrile] | 9.2 | 19.2 ± 8.4 |
| CC(C)(C)c1cc(SCCCCCCC#N)cc(C(C)(C)C)c1O [Id, 7-(3,5-Di-tert-butyl-4-hydroxy)phenylthioheptanonitrile] | 5.4 | 77.3 ± 16.8 |
| CC(C)(C)c1cc(SCCc2nnn[nH]2)cc(C(C)(C)C)c1O [Ie, 5-[2-(3,5-Di-tert-butyl-4-hydroxy)phenylthioethyl]tetrazole] | 8.1 | 37.2 ± 5.9 |
| CC(C)(C)c1cc(SCCCc2nnn[nH]2)cc(C(C)(C)C)c1O [If, 5-[3-(3,5-Di-tert-butyl-4-hydroxy)phenylthiopropyl]tetrazole] | 5.7 | 52.1 ± 20.0 |
| CC(C)(C)c1cc(SCCCCc2nnn[nH]2)cc(C(C)(C)C)c1O [Ig, 5-[4-(3,5-Di-tert-butyl-4-hydroxy)phenylthiobutyl]tetrazole] | 4.1 | 49.2 ± 13.0 |
| CC(C)(C)c1cc(SCCCCCc2nnn[nH]2)cc(C(C)(C)C)c1O [Ih, 5-[5-(3,5-Di-tert-butyl-4-hydroxy)phenylthiopentyl]tetrazole] | 9.5 | 52.5 ± 16.6 |
| CC(C)(C)c1cc(SCCCCCCc2nnn[nH]2)cc(C(C)(C)C)c1O [Ii, 5-[6-(3,5-Di-tert-butyl-4-hydroxy)phenylthiohexyl]tetrazole] | 4.4 | 46.6 ± 13.4 |
| CC(C)(C)c1cc(SCCCCCC(N)=O)cc(C(C)(C)C)c1O [Ij, 6-(3,5-Di-tert-butyl-4-hydroxy)phenylthiohexanamide] | 4.7 | 70.8 ± 8.5 |
| CC(C)(Sc1cc(C(C)(C)C)c(O)c(C(C)(C)C)c1)Sc1cc(C(C)(C)C)c(O)c(C(C)(C)C)c1 [Probucol, reference compound] | 58.3 | 75.4 ± 22.1 |
